The source of these data is patent US20250325492A1, “IONIZABLE LIPIDS, LIPID NANOPARTICLES FOR MRNA DELIVERY AND METHODS OF MAKING THE SAME” (University of Cincinnati, priority 2022, published 2025).

The subject of experiment [1] is human Jurkat T cells. The experiment is described as follows: In vitro mRNA transfection efficiency (eGFP fluorescence), flow cytometry. The class given is cell-based. Particulars: 44-hour incubation; for transfection efficiency: 100 ng mRNA per well, eGFP fluorescence, FIG. 17B; for transfection efficiency, result in words: compared with the controls. The procedure:
(§1) Flow cytometry was used to determine in vitro cellular uptake and transfection efficacy in human Jurkat T cells. The cells were seeded in a 96-well plate at a density of 40,000 cells/well. Different formulations containing 100 ng of mRNA were added to each well and were incubated for 44 hours at 37° C. The cells were washed and centrifuged at 300×g. The supernatant was discarded. After the cells were diluted in PBS, flow cytometry analysis was performed to quantify the amounts of cellular uptake and transfection efficiency.
(§2) LNPs with different compositions were tested against Jurkat cells for both cellular uptake and mRNA transfection efficiencies, as depicted in FIGS. 17A and 17B respectively. Human Jurkat cells are representative T lymphocytes which are known to be difficult to transfect. The LNPs were tested for cellular uptake using Cy5-labeled eGFP mRNA. Cy5 fluorescent dye was used to determine the cellular uptake while eGFP fluorescence was used to determine the transfection efficiency of the mRNA encapsulated in the different LNP formulations. After 44-hour incubation, fluorescence was measured using a flow cytometer. In Jurkat cells, the cellular uptake was ˜36% for the positive control, SM-102 while the transfection efficiency was ˜91%.
For orientation: Flow cytometry measures light scatter and fluorescence of single cells or particles in a stream.

Experiment [2] relates to human Jurkat T cells. The experiment can be described thus: In vitro cellular uptake of Cy5-labeled eGFP mRNA LNPs, flow cytometry. Particulars: 44-hour incubation; for cellular uptake efficiency, result in words: compared with the controls. The class given is cell-based. As to the method:
as §1, §2

In turn, `CCCCCCCCC(CCCCCC)COC(=O)CCCCCN(CCCCCC(=O)OCC(CCCCCC)CCCCCCCC)CCN(C)C` (stereo not shown) [Control 2, 1,1′-bis(2-hexyldecyl) 6,6′-[[2-(dimethylamino)ethyl]imino]bis[hexanoate], reference compound] gave a transfection efficiency in experiment [1] of 80%.

As for `CCCCCCCCC(CCCCCC)COC(=O)CCCCCN(CCCCCC(=O)OCC(CCCCCC)CCCCCCCC)CCN(CCO)C1CCC1` (stereo not shown) [Lipid 1], the transfection efficiency in experiment [1] stood at 59%.

Regarding `CCCCCCCCC(CCCCCC)COC(=O)CCCCCN(CCCCCC(=O)OCC(CCCCCC)CCCCCCCC)CCN(CCN(C)C)C1CCC1` (stereo not shown) [Lipid 2, 2-hexyldecyl 6-[(2-{cyclobutyl[2-(dimethylamino)ethyl]amino}ethyl)({6-[(2-hexyldecyl)oxy]-6-oxohexyl})amino]hexanoate], in experiment [1], the transfection efficiency is 92% and the “transfection efficiency, result in words” value is “outperformed the controls”. Further, the “cellular uptake efficiency, result in words” value in experiment [2] is given as “outperformed the controls”.

Regarding `CCCCCCCCC(CCCCCC)COC(=O)CCCCCN(CCCCCC(=O)OCC(CCCCCC)CCCCCCCC)CCN(CCCN(C)C)C1CCC1` (stereo not shown) [Lipid 3, 2-hexyldecyl 6-[(2-{cyclobutyl[3-(dimethylamino)propyl]amino}ethyl)({6-[(2-hexyldecyl)oxy]-6-oxohexyl})amino]hexanoate], in experiment [1], the transfection efficiency is listed as 78% and the “transfection efficiency, result in words” value is “outperformed the controls”. For the same compound, the “cellular uptake efficiency, result in words” value in experiment [2] is “outperformed the controls”.

`CCCCCCCCCCCOC(=O)CCCCCN(CCO)CCCCCCCC(=O)OC(CCCCCCCC)CCCCCCCC` [SM-102, reference compound] registered a transfection efficiency in experiment [1] of about 91%. In addition, in experiment [2] (100 ng mRNA per well, Cy5 fluorescence, FIG. 17A), the cellular uptake was about 36%.
